Molecules are shown by their SMILES. Where two headings read alike, the source gives them in different places.

The target in series [1] is T1, HNF4α (Homo sapiens, UniProt P41235).
T1 sequence (P41235 1-474): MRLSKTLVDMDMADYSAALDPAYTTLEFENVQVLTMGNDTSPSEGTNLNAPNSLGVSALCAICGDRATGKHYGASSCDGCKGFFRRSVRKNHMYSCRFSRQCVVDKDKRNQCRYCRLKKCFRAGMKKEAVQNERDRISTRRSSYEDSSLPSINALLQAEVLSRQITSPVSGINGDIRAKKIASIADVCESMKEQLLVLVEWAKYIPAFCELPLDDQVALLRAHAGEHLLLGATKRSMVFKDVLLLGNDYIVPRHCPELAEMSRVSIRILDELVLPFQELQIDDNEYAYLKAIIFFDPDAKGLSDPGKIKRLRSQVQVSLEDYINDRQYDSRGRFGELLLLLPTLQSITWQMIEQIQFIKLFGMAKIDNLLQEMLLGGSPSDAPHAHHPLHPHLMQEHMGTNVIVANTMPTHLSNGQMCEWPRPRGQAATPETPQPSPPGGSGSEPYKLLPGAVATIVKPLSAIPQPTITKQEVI
Nature of the series: Cell-based human insulin promoter reporter assay sensitive to HNF4α activity. From the text:
HNF4α is a nuclear receptor transcription factor that controls the expression of downstream genes that are important in multiple aspects of cellular metabolism. The classical view of HNF4α has been that its ligand binding pocket (LBP) is constitutively occupied by a fatty acid that plays a structural rather than regulatory role. However, it has been shown recently that the fatty acids in the HNF4α LBP are exchangeable in the context of full length HNF4α, particularly inside the cell. […] Using the assay in high-throughput screening, it was discovered HNF4α antagonists and more recently agonists. […] Previously, it was shown that intraperitoneal (IP) administration of NCT reversed hepatic steatosis in obese mice fed a high fat diet through a previously unsuspected pathway involving regulation by HNF4α of dihydroceramide synthesis.
(In general: Reporter assays use an easily measured gene product as a stand-in for the process of interest.)

For series [2] the following is noted: previous two-week IP administration, obese mice; cited from earlier work.
Series [3] is described as follows: Oral gavage delivery of NCT to DIO mice. Type of series: in vivo, mouse. Here is the method: 12-week-old C57BL/6J DIO male mice were purchased from Jackson laboratory (cat #380050) and were fed with high fat diet (Research Diets, cat #D12492 60 kcal % fat). […] 14 week old mice were injected subcutaneously using sterile insulin syringes filled with DMSO or NCT (200 mg/kg of mouse body weight) bid for 2 weeks. For oral gavage, 14-week-old C57BL/6J DIO male mice were fed by oral gavage using a feeding needle attached to a sterile 1 ml syringe filled with 200 μL of methyl cellulose (MC, vehicle control) or 200 μL of NCT (200 mg/kg) dissolved in methyl cellulose twice a day for 2 weeks. […] For analysis all mice were sacrificed after 2 weeks of treatment.

The test system of series [4] is IL-6 mRNA. Nature of the series: qPCR mouse liver, IL-6 mRNA. The following applies: HFD+NCT vs HFD. Type of series: in vivo. The protocol: (§1) Total RNA was isolated from liver tissues and primary human hepatocytes using Trizol (Invitrogen). cDNA was amplified using 3 μg of total RNA using qScript cDNA SuperMix (Quanta BioSciences, Beverly, MA, USA). Quantitative real time PCR (RT-PCR) analysis was performed using SYBR® Select Master Mix (Applied Biosystems) and an ABI 7900HT thermal cycler (Applied Biosystems, Thermo Fisher Scientific). Ct values were normalized to 18s rRNA and are expressed as fold change over samples from mice fed NC or cultured human hepatocytes without NCT.
(Quantitative PCR measures a nucleic acid by following its amplification.)

Series [5] deals with PPARGC1A mRNA. Kind of series: qPCR mouse liver, PPARGC1A mRNA. The class given is in vivo. The following applies: ten weeks of oral NCT. Here is the method:
as §1

In series [6] the test system is Sirtuin3 mRNA. Nature of the series: qPCR primary human hepatocytes, Sirtuin3 mRNA. The following applies: NCT 5, 15, 40 μM. The class given is cell-based. The protocol: Experiments with primary human hepatocytes were performed by CN-Bio (Cambridge, UK). Briefly, primary human hepatocytes (PHHs), human Kupffer cells (HKs) and human stellate cells (HSCs) were seeded onto CN-Bio's PhysioMimix LC12 MPS culture plates at 6×10^5 cells for PHHs and 6×10^4 cells for HKs and HSCs in 1.6 ml of CN-Bio's HEP-lean media with 5% FCS. Throughout the experiment the cells were maintained at a flow rate of 1 μl/s. After 24 hours (Day 1) of seeding, the media was changed to HEP-lean media and the cells were incubated until day 4 to allow the cells to form microtissues. At day 4 post seeding, media was changed to HEP-fat media and treated with DMSO or NCT (5, 15, 40 μM). Media was replaced on days 6 and 8. Cells were harvested on day 10 for RNA extraction and culture media was collected for ELISA analysis.
as §1

Series [7] relates to T6PNE cells. Nature of the series: Nitric oxide assay, T6PNE cells treated with palmitate. The class given is cell-based. The following applies: palmitate plus 15 μM NCT, 3 days, normalized to protein. The protocol:
T6PNE cells were maintained in RPMI (5.5 mM glucose, Corning) supplemented with 10% fetal bovine serum (FBS, Sigma-Aldrich) and 1% penicillin-streptomycin (pen-strep, Gibco) in 5% CO2 at 37° C. Cells were treated with […] palmitate plus 0 or 15 μM NCT for 3 days in 10 cm plates and harvested with 500 μl PBS. For tissue specimens, snap frozen mouse liver was weighed and homogenized with PBS. NO was measured with the QuantiChrom Nitric Oxide Assay kit (D2NO-100, BioAssay Systems). Homogenized samples (150 μl) were processed for deproteination with 8 μl ZnSO4 and 8 μl NaOH. For normalization, an aliquot of samples from T6PNE cells was taken for BCA assay before deproteination. Samples and standard from kit incubated with reagents for 20 min at 60° C. and measured OD 540 nm.
Palmitate (150 mM) (Sigma-Aldrich) was prepared in 50% ethanol and precomplexed with 15% fatty acid-free BSA (Research Organics, Cleveland, OH, USA) in a 37° C. water shaker. […] precomplexed palmitate was used as a 12 mM stock solution for all assays with a final concentration of 0.12 mM palmitate in cell culture medium.

The nature of series [8]: Free fatty acid quantification in serum. Type of series: in vivo, mouse. The conditions noted are these: HFD+NCT vs HFD, 10 weeks. Here is the method: Blood samples were collected from dextrose injected mice and centrifuged to collect serum samples. The serum FFA level was measured according to manufacturer's instructions using a Free Fatty Acid Quantification Colorimetric/Fluorometric Kit (Cat #K612, BioVision, USA). Fold change was calculated by normalizing to values from mice fed NC.

`O=C(/C=C/c1ccc(O)c(O)c1)NCCc1ccc(O)cc1` [NCT, N-transcaffeoyltyramine]: the HNF4α agonist activity result in series [1] is recorded as “strong HNF4α agonists”. In [1] (listed as N-trans caffeoyltyramine), the HNF4α agonist activity entry was “potent agonist”. Further, in series [2], the body weight entry is recorded as “no effect on body weight” and the hepatic steatosis entry is on record as “decreased hepatic steatosis”. In addition, the “liver color after oral gavage NCT” value in [3] (200 mg/kg bid, 2 weeks, vs methyl cellulose) is recorded as “No difference in liver color”. Further, the “outcome of oral gavage delivery” value in series [3] (200 mg/kg in methyl cellulose, 2 doses per day, 2 weeks) is listed as “compound precipitation”. Further, the “NCT compound level in serum and stool” value in series [3] (following oral gavage 200 mg/kg bid) was “present in stool but not serum”. In addition, in series [4], the “IL-6 mRNA in mouse liver” value was “significantly reduced”. In addition, the “PPARGC1A mRNA in mouse liver” value in [5] is on record as “increased”. For the same compound, in [6], the “Sirtuin3 mRNA in primary human hepatocytes” value is “significant effect”. The “nitric oxide (NO) in cultured cells treated with palmitate” value in series [7] was “decreased”. The “body weight less than mice fed HFD” value (HFD+NCT (4000 ppm NCT in chow, approx. 400 mg/kg/d) vs HFD, end of experiment at 10 weeks) is on record as ~10 gm. Besides, the “week at which lower body weight became evident” value (HFD+NCT vs HFD) came out at 5 week. Under “HFD+NCT vs HFD, 10 weeks”, the “difference in body weight” value is reported as 35-40%, the liver redness result is recorded as “redder livers” and the “obesity (appearance)” value is recorded as “markedly less obese”. The “epididymal fat pad weight” value (HFD+NCT vs HFD, end of study, normalized to body weight) was “no change”. Further, the liver weight entry (HFD+NCT vs HFD, normalized to body weight) is reported as “lower liver weight”. In addition, the liver size entry (HFD+NCT vs HFD, photographs) was “reduction of liver size”. The “physical activity or other behaviors” value (mouse, in vivo) was “no discernible difference”. In [8], the “circulating free fatty acid (FFA)” value is listed as “no difference”.

The record behind these values is US20240374546A1, “USES AND METHODS FOR PROMOTING INCREASED MITOCHONDRIAL MASS AND FUNCTION” (Brightseed, Inc., priority 2022, published 2024).
